Results reported in US20230407243A1, “GENETIC PLATFORM TO INVESTIGATE THE FUNCTIONS OF BACTERIAL DRUG EFFLUX PUMPS” (priority 2022, published 2023).

How the values were obtained:
Type in all cases: cell-based, Escherichia coli
E. coli ΔtolC = assay: microbe, parasite or virus in culture; conditions: technical duplicate
How it was run: (§1)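 LB o/n 37 °C → PBS pH 7.4, OD600 ~1.0 → 1/2000 in MHB II; 2-fold cmpd series, duplicate, DMSO ctrl; 18 h 37 °C, 900 rpm; OD600 post minus pre.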

E. coli EKO-35 = assay: microbe, parasite or virus in culture
How it was run: as §1

[1] = tested on: wild-type E. coli K-12 str. BW25113; assay: microbe, parasite or virus in culture; conditions: technical duplicate
How it was run: as §1

EKO-35-Pore = assay: MIC susceptibility profiling, porinated strain
How it was run: (§2)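 Strains carry the fhuA ΔC/Δ4L pore integrated between glmS and pstS under a constitutive promoter, with pore activity checked by vancomycin susceptibility. Overnight LB cultures were adjusted in PBS pH 7.4 to OD600 ~1.0 and diluted 1/2000 into MHB II. 2-fold compound titrations were read by OD600 after 18 h at 37 °C.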

EKO-35 araC::emrAB = assay: MIC susceptibility profiling, efflux platform
How it was run: as §1

EKO-35 araC::macAB = assay: MIC susceptibility profiling, efflux platform
How it was run: as §1

EKO-35 araC::acrEF = assay: MIC susceptibility profiling, efflux platform
How it was run: as §1

[2] = tested on: EKO-35 araC::acrBD408A Pore; assay: MIC susceptibility profiling, porinated efflux platform
How it was run: as §2

EKO-35 araC::mdtBC Pore = assay: as above
How it was run: as §2

EKO-35 araC::emrAB Pore = assay: as above
How it was run: as §2

EKO-35 araC::acrD Pore = assay: as above
How it was run: as §2

EKO-35 araC::mdtEF Pore = assay: as above
How it was run: as §2

EKO-35 araC::mexCD Pore = assay: as above
How it was run: as §2

EKO-35 araC::acrEF Pore = assay: as above
How it was run: as §2

EKO-35 araC::macAB Pore = assay: as above
How it was run: as §2

EKO-35 araC::emrKY Pore = assay: as above
How it was run: as §2

EKO-35 araC::acrB Pore = assay: as above
How it was run: as §2

ΔtolC-Pore = assay: microbe, parasite or virus in culture; conditions: technical duplicate
How it was run: as §2

wild-type (WT) K-12-Pore = assay: microbe, parasite or virus in culture; conditions: technical duplicate
How it was run: as §2

[3] = Table 13A, non-porinated, technical duplicate
[4] = Table 14A, porinated, technical duplicate
[5] = Table 13B, non-porinated, technical duplicate

C[C@H](CCC(=O)NCCS(=O)(=O)[O-])[C@H]1CC[C@H]2[C@@H]3CC[C@@H]4C[C@H](O)CC[C@]4(C)[C@H]3C[C@H](O)[C@]12C.[Na+] [sodium taurodeoxycholate]
Minimum inhibitory concentration (MIC), ΔtolC (E. coli ΔtolC; Table 10, without pore): 250 µg/mL
Minimum Inhibitory Concentration, ΔtolC (E. coli ΔtolC; Table 13A, non-porinated): 250 µg/mL
Fold change of MICs (E. coli EKO-35; EKO-35 compared to EKO-35 (reference)): 1 fold
Minimum inhibitory concentration (MIC), EKO-35 (E. coli EKO-35; Table 10, without pore, technical duplicate): 500 µg/mL
Minimum Inhibitory Concentration, EKO-35 (E. coli EKO-35; [3]): 500 µg/mL
Minimum inhibitory concentration (MIC), K-12 ([1]; Table 10, without pore): 1000 µg/mL
Minimum Inhibitory Concentration, K-12 ([1]; Table 13A, non-porinated): 1000 µg/mL
Fold changes of MICs (EKO-35-Pore; EKO-35-Pore compared to EKO-35-Pore (reference)): 1 fold
Minimum inhibitory concentration (MIC), Pore EKO-35 (EKO-35-Pore; Table 10, with pore, technical duplicate): 250 µg/mL
Minimum inhibitory concentration, EKO-35-Pore (EKO-35-Pore; [4]): 250 µg/mL
Fold change of MICs (EKO-35 araC::emrAB; EKO-35 araC::emrAB compared to EKO-35): 2 fold
Minimum Inhibitory Concentration, EKO-35 araC::emrAB (EKO-35 araC::emrAB; [5]): 1000 µg/mL
Fold change of MICs (EKO-35 araC::macAB; EKO-35 araC::macAB compared to EKO-35): 1 fold
Minimum Inhibitory Concentration, EKO-35 araC::macAB (EKO-35 araC::macAB; [5]): 250 µg/mL
Fold change of MICs (EKO-35 araC::acrEF; EKO-35 araC::acrEF compared to EKO-35): 2 fold
Minimum Inhibitory Concentration, EKO-35 araC::acrEF (EKO-35 araC::acrEF; [3]): 1000 µg/mL
Fold changes of MICs ([2]; EKO-35 araC::acrBD408A Pore compared to EKO-35-Pore): 1 fold
Minimum inhibitory concentration ([2]; EKO-35 araC::acrBD408A Pore, technical duplicate): 250 µg/mL
Fold changes of MICs (EKO-35 araC::mdtBC Pore; EKO-35 araC::mdtBC Pore compared to EKO-35-Pore): 4 fold
Minimum inhibitory concentration (EKO-35 araC::mdtBC Pore; EKO-35 araC::mdtBC Pore, technical duplicate): 1000 µg/mL
efflux pump-mediated resistance vs EKO-35-Pore (EKO-35 araC::mdtBC Pore; MdtBC with the pore): associated MdtBC with resistance
Fold changes of MICs (EKO-35 araC::emrAB Pore; EKO-35 araC::emrAB Pore compared to EKO-35-Pore): 2 fold
Minimum inhibitory concentration (EKO-35 araC::emrAB Pore; EKO-35 araC::emrAB Pore, technical duplicate): 500 µg/mL
Fold changes of MICs (EKO-35 araC::acrD Pore; EKO-35 araC::acrD Pore compared to EKO-35-Pore): 4 fold
Minimum inhibitory concentration, EKO-35 araC::acrD Pore (EKO-35 araC::acrD Pore; [4]): 1000 µg/mL
Fold changes of MICs (EKO-35 araC::mdtEF Pore; EKO-35 araC::mdtEF Pore compared to EKO-35-Pore): 4 fold
efflux pump-mediated resistance vs EKO-35-Pore (EKO-35 araC::mdtEF Pore; MdtEF with the pore): increased resistance
Minimum inhibitory concentration, EKO-35 araC::mdtEF Pore (EKO-35 araC::mdtEF Pore; [4]): 1000 µg/mL
Fold changes of MICs (EKO-35 araC::mexCD Pore; EKO-35 araC::mexCD Pore compared to EKO-35-Pore): 4 fold
Minimum inhibitory concentration (EKO-35 araC::mexCD Pore; EKO-35 araC::mexCD Pore, technical duplicate): 1000 µg/mL
efflux pump-mediated resistance vs EKO-35-Pore (EKO-35 araC::mexCD Pore; MexCD, OM compromised): increased resistance
efflux pump-mediated resistance vs EKO-35-Pore (EKO-35 araC::acrEF Pore; AcrEF with the pore): increased resistance
Fold changes of MICs (EKO-35 araC::acrEF Pore; EKO-35 araC::acrEF Pore compared to EKO-35-Pore): 4 fold
Minimum inhibitory concentration, EKO-35 araC::acrEF Pore (EKO-35 araC::acrEF Pore; [4]): 1000 µg/mL
Fold changes of MICs (EKO-35 araC::macAB Pore; EKO-35 araC::macAB Pore compared to EKO-35-Pore): 1 fold
Minimum inhibitory concentration (EKO-35 araC::macAB Pore; EKO-35 araC::macAB Pore, technical duplicate): 250 µg/mL
Fold changes of MICs (EKO-35 araC::emrKY Pore; EKO-35 araC::emrKY Pore compared to EKO-35-Pore): 1 fold
Minimum inhibitory concentration (EKO-35 araC::emrKY Pore; EKO-35 araC::emrKY Pore, technical duplicate): 250 µg/mL
efflux pump-mediated resistance vs EKO-35-Pore (EKO-35 araC::acrB Pore; AcrB with the pore): increased resistance
Fold changes of MICs (EKO-35 araC::acrB Pore; EKO-35 araC::acr-B Pore compared to EKO-35-Pore): 4 fold
Minimum inhibitory concentration, EKO-35 araC::acrB Pore (EKO-35 araC::acrB Pore; [4]): 1000 µg/mL
Minimum inhibitory concentration (MIC), Pore ΔtolC (ΔtolC-Pore; Table 10, with pore): 250 µg/mL
Minimum inhibitory concentration, ΔtolC-Pore (ΔtolC-Pore; Table 14A, porinated): 250 µg/mL
Minimum inhibitory concentration (MIC), Pore K-12 (wild-type (WT) K-12-Pore; Table 10, with pore): 1000 µg/mL
Minimum inhibitory concentration, K-12 (WT)-Pore (wild-type (WT) K-12-Pore; Table 14A, porinated): 1000 µg/mL
